Where two headings read alike, the source gives them in different places.
What was measured:
[1] = test system: 6-OHDA-induced unilateral damage PD model; experiment: Apomorphine-induced contralateral circling test in 6-OHDA-induced rat Parkinson's disease model; assay type: in vivo, male Wistar rat; details: after 29 days of treatment, FIG. 3
Description: 3.1.2 The animals were injected intraperitoneally with APO (0.5 mg/kg, 2 mL/kg) 3 minutes before testing.
3.1.3 The animals were placed in a circular test box after dosing. Changes in animal behavior were observed and recorded by Ethovi si on video software, and the number of revolutions of each animal within 30 min was counted manually.
3.1.4 APO-induced circling behavior: The animal circled rightwards with the left hind limb as the fulcrum. One turn was counted as one revolution by taking the head of the rat as a reference. Animals with more than 180 revolutions within 30 min were qualified rat Parkinson's disease models.
3.2.1 140 animals were randomly selected, and intramuscularly injected with Zoletil at 30 mg/kg in combination with 3 mg/kg of xylazine hydrochloride for general anesthesia before the operation.
3.2.7 The injection of 6-OHDA was started 2 min after the needle reached the designated depth. […]
3.3.3 The animals were placed in a circular test box after dosing. Changes in animal behavior were observed and recorded by Ethovision video software, and the number of revolutions of each animal within 30 min was counted manually.
3.3.4 APO-induced circling behavior: The animal circled rightwards with the left hind limb as the fulcrum. One turn was counted as one revolution by taking the head of the rat as a reference. […]

[2] = test system: patients with early PD; details: 24 weeks, cited from earlier work
[3] = test system: MPTP-induced mouse Parkinson's disease model; experiment: MPTP-induced mouse Parkinson's disease model, dopamine content in dorsal striatum by LC-MS; assay type: in vivo, male C57BL/6J mice
Description: Animals in control group were injected with an equal volume of […]. After 6 weeks, mice were euthanized and the dorsal striatum was separated after normal saline perfusion, weighed and preserved in a −80° C. freezer. The content of dopamine in dorsal striatal was determined by LC-MS. [table]

[4] = biological target: T1, MAO-B (Homo sapiens, UniProt P27338); details: cited from earlier work; for inhibitory strength to MAO-B than that to MAO-A: selectivity MAO-B over MAO-A
T1 sequence (P27338 1-520): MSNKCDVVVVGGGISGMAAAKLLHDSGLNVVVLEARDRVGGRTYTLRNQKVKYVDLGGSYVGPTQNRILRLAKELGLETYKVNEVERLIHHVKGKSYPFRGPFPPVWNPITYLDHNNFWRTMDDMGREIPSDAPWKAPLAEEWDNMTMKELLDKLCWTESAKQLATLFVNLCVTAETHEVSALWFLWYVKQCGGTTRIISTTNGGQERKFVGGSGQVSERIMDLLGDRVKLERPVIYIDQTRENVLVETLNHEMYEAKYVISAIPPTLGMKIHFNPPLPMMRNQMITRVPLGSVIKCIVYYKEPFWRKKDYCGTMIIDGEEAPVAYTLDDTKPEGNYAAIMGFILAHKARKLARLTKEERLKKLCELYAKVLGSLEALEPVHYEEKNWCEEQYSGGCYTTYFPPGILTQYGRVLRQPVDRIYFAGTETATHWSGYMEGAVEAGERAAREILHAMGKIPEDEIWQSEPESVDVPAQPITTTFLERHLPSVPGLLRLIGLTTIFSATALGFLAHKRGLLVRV

SMILES	reduction in the number of revolutions compared with that before treatment ([1]; G4, PPX 0.1 mpk P.O. QD) [%]	improvement of movement symptoms (total UPDRS score, LPDRS [sic]) ([2]; safinamide 100 mg/d in combination with DA receptor agonist)	improvement of movement symptoms (total UPDRS score, LPDRS [sic]) ([2]; safinamide 200 mg/d in combination with DA receptor agonist)	effect on dopamine reduction in the MPTP model (FIG. 1) ([3]; average dopamine concentration in mouse brain, all dose groups)	dopamine levels in dorsal striatum compared with modeling group G2 ([3]; compound B group (15 mg/kg i.p. QD 6 weeks))	elevation in the number of revolutions compared with that before treatment ([1]; G3, SAF 15 mpk P.O. QD) [%]	time after discontinuation until physiological function completely restored ([4]; after discontinuation) [h]	reversibility of MAO-B inhibition [4]	inhibitory strength to MAO-B than that to MAO-A [4] [fold]
CCCN[C@H]1CCc2nc(N)sc2C1 [Compound A, Pramipexole]	24								
C[C@H](NCc1ccc(OCc2cccc(F)c2)cc1)C(N)=O [Compound B, Safinamide]		effective	no effect in improving movement symptoms	improvement effects	significantly higher	5	8	reversible	5000
C#CCN[C@@H]1CCc2ccccc21 [rasagiline]								irreversible	103

Source: patent publication US20230028539A1, “PHARMACEUTICAL COMPOSITION, COMPLEMENTARY KIT AND APPLICATION THEREOF” (SHANGHAI PHARMACEUTICALS HOLDING CO., LTD., priority 2019, published 2023)
